Measurements: BigSolDB 2.1

For `Cn1cc[n+](CCC[n+]2ccn(C)c2)c1.F[P-](F)(F)(F)(F)F.F[P-](F)(F)(F)(F)F`, the solubility (mole fraction) (in 2-butanone, 290.15 K) was 0.00292, the solubility (mole fraction) (in 2-butanone, 294.15 K) was 0.00339 and the solubility (mole fraction) (in 2-butanone, 299.35 K) was 0.00404. The solubility (mole fraction) (in 2-butanone, 303.15 K) was 0.00458, the solubility (mole fraction) (in 2-butanone, 308.15 K) was 0.00524 and the solubility (mole fraction) (in 2-butanone, 313.25 K) was 0.00598. For the same molecule, the solubility (mole fraction) (in 2-butanone, 318.15 K) was 0.00671, the solubility (mole fraction) (in 2-butanone, 323.15 K) was 0.00738 and the solubility (mole fraction) (in 2-butanone, 328.15 K) was 0.00811. The solubility (mole fraction) (in 2-butanone, 335.25 K) was 0.00913, the solubility (mole fraction) (in acetone, 289.15 K) was 0.0365 and the solubility (mole fraction) (in acetone, 293.15 K) was 0.0401. The solubility (mole fraction) (in acetone, 296.65 K) was 0.0433, the solubility (mole fraction) (in acetone, 301.15 K) was 0.0485 and the solubility (mole fraction) (in acetone, 306.15 K) was 0.0551. The solubility (mole fraction) (in acetone, 310.15 K) was 0.0605, the solubility (mole fraction) (in acetone, 315.15 K) was 0.0681 and the solubility (mole fraction) (in acetone, 321.15 K) was 0.0772. It also gave a solubility (mole fraction) (in acetophenone, 289.15 K) of 0.000417, a solubility (mole fraction) (in acetophenone, 293.15 K) of 0.000461 and a solubility (mole fraction) (in acetophenone, 296.65 K) of 0.0005. For the same molecule, the solubility (mole fraction) (in acetophenone, 302.15 K) was 0.00056, the solubility (mole fraction) (in acetophenone, 307.15 K) was 0.000619 and the solubility (mole fraction) (in acetophenone, 312.15 K) was 0.000683. For the same molecule, the solubility (mole fraction) (in acetophenone, 317.35 K) was 0.000743, the solubility (mole fraction) (in acetophenone, 321.65 K) was 0.000807 and the solubility (mole fraction) (in acetophenone, 328.15 K) was 0.000899. It also gave a solubility (mole fraction) (in acetophenone, 333.15 K) of 0.000996, a solubility (mole fraction) (in acetylacetone, 288.55 K) of 0.000598 and a solubility (mole fraction) (in acetylacetone, 293.15 K) of 0.000876. It also gave a solubility (mole fraction) (in acetylacetone, 297.45 K) of 0.0012, a solubility (mole fraction) (in acetylacetone, 302.65 K) of 0.00172 and a solubility (mole fraction) (in acetylacetone, 307.85 K) of 0.00241. It also gave a solubility (mole fraction) (in acetylacetone, 313.15 K) of 0.00325, a solubility (mole fraction) (in acetylacetone, 317.65 K) of 0.00411 and a solubility (mole fraction) (in acetylacetone, 323.15 K) of 0.00532. The solubility (mole fraction) (in acetylacetone, 327.35 K) was 0.00639, the solubility (mole fraction) (in acetylacetone, 334.65 K) was 0.0084 and the solubility (mole fraction) (in cyclohexanone, 289.65 K) was 0.000151. For the same molecule, the solubility (mole fraction) (in cyclohexanone, 294.15 K) was 0.000222, the solubility (mole fraction) (in cyclohexanone, 299.15 K) was 0.000331 and the solubility (mole fraction) (in cyclohexanone, 303.15 K) was 0.000443. For the same molecule, the solubility (mole fraction) (in cyclohexanone, 308.15 K) was 0.000622, the solubility (mole fraction) (in cyclohexanone, 313.25 K) was 0.000852 and the solubility (mole fraction) (in cyclohexanone, 318.15 K) was 0.00112. For the same molecule, the solubility (mole fraction) (in cyclohexanone, 323.15 K) was 0.00143, the solubility (mole fraction) (in cyclohexanone, 328.15 K) was 0.00181 and the solubility (mole fraction) (in cyclohexanone, 333.15 K) was 0.00224. For the same molecule, the solubility (mole fraction) (in water, 289.15 K) was 7.7e-05, the solubility (mole fraction) (in water, 293.15 K) was 0.000102 and the solubility (mole fraction) (in water, 297.65 K) was 0.000137. The solubility (mole fraction) (in water, 304.75 K) was 0.000216, the solubility (mole fraction) (in water, 309.35 K) was 0.000289 and the solubility (mole fraction) (in water, 313.25 K) was 0.000366. It also gave a solubility (mole fraction) (in water, 317.15 K) of 0.000454, a solubility (mole fraction) (in water, 322.65 K) of 0.000611 and a solubility (mole fraction) (in water, 327.15 K) of 0.00078. The solubility (mole fraction) (in water, 332.65 K) was 0.00104.
